Values quoted from earlier work in PMC8762078, “An ALS-associated variant of the autophagy receptor SQSTM1/p62 reprograms binding selectivity toward the autophagy-related hATG8 proteins” (The Journal of Biological Chemistry, 2021).
Entries after “also recorded” stand apart in the source; their conditions may differ.

Columns and labels:
[1] = test system: motor neurone-like cells
Source text: Autophagy is a central pathway for the removal of aggregated or damaged proteins and organelles and is critical to cellular homeostasis. Deregulation of autophagy is recognized as a pathogenic mechanism contributing to a range of neurodegenerative disorders, including amyotrophic lateral sclerosis (ALS) and frontotemporal lobar degeneration (FTLD) ([1], [2], [3], [4]). These conditions form a disease spectrum (ALS-FTLD) defined primarily by ubiquitinated inclusions of TAR DNA-binding protein-43 kDa in neurones ([5]). The link between ALS-FTLD and autophagy is reinforced by the identification o ... || A clear effect of the ALS-associated L341V mutation of p62/hATG8 interactions has been shown through these in vitro studies, though the impact remains relatively modest with individual interaction affinity alterations of up to approximately twofold. However, the interactions are best contextualized around the tendency for p62 to assemble into nanoscale filaments, which have been amenable to cryo-EM structural characterization (Fig. 6A) ([17], [52]). The N-terminal PB1 domain of p62 assembles into a helical protein scaffold with the flexible C-terminal chain, which carries the AIM and UBA domai ...

[2] = target: GABARAPL2 (Homo sapiens, UniProt P60520); settings: ITC, compared with p62 WT-AIM
Source text: A comparison may be drawn between the GABARAPL2/p62 AIM model produced here and the GABARAPL2/UBA5 AIM structure, the only published structure of an AIM-bound GABARAPL2 ([38]). Both involve the formation of an intermolecular β-sheet between the AIM and the β2 strand of GABARAPL2; however, the UBA5 AIM is atypical, and this produces a noncanonical interaction. The UBA5 AIM sequence ([…]) leads to the formation of a binding pocket not observed in the GABARAPL2/p62 AIM model proposed here or in any other hATG8/AIM interaction, due to the spacing of the key residues. The RMSD between these two ...

Chain of GABARAPL2 (P60520 whole entry): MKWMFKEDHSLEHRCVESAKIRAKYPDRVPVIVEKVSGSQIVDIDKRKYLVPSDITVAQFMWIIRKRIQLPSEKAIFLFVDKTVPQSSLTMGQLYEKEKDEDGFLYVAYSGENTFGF

For “p62 L341V: ALS-associated L341V variant of the SQSTM1/p62 autophagy receptor”, the “p62 recruitment into autophagic vesicles” value [1] is listed as “defect in p62 protein recruitment into autophagic vesicles; also recorded: reduction in p62 recruitment to acidic autophagic vesicles”.

For WGIELV [UBA5 AIM], the “thermodynamic profile of GABARAPL2/UBA5 interaction” value [2] is listed as “more enthalpically driven than the interaction with p62 reported here”.
